In ChEMBL document CHEMBL4043265, “Discovery of imidazo[1,2-a]-, [1,2,4]triazolo[4,3-a]-, and [1,2,4]triazolo[1,5-a]pyridine-8-carboxamide negative allosteric modulators of metabotropic glutamate receptor subtype 5” (Bioorg Med Chem Lett, 2017):
Activity calls are given as the source filed them. No cut-off for these calls is given here.

How the values were obtained:
[1] = molecular target: Cytochrome P450 3A4 (Homo sapiens, UniProt P08684)
[2] = molecular target: Metabotropic glutamate receptor 5 (Rattus norvegicus, UniProt P31424); assay: Negative allosteric modulation of rat mGlu5 receptor expressed in HEK293 cells assessed as inhibition of glutamate induced-calcium mobilization preincubated for 2.3 mins followed by glutamate addition measured after 1.7 mins by Fluo-4 AM dye based fluorescence assay; assay type: functional, cell-based
[3] = molecular target: Cytochrome P450 2D6 (Homo sapiens, UniProt P10635)
[4] = molecular target: Cytochrome P450 2C9 (Homo sapiens, UniProt P11712)
[5] = tested on: Plasma; conditions: human, 4 h, 5 µM
[6] = tested on: Plasma; conditions: rat, 4 h, 5 µM
[7] = molecular target: Metabotropic glutamate receptor 5 (Rattus norvegicus) (UniProt P31424); assay: Negative allosteric modulation of rat mGlu5 receptor expressed in HEK293 cells assessed as inhibition of glutamate induced-calcium mobilization at 30 uM preincubated for 2.3 mins followed by glutamate addition measured after 1.7 mins by Fluo-4 AM dye based fluorescence assay relative to glutamate; assay type: functional, cell-based
[8] = molecular target: T1, Cytochrome P450 1A2 (Homo sapiens, UniProt P05177)
T1 sequence (P05177 whole entry): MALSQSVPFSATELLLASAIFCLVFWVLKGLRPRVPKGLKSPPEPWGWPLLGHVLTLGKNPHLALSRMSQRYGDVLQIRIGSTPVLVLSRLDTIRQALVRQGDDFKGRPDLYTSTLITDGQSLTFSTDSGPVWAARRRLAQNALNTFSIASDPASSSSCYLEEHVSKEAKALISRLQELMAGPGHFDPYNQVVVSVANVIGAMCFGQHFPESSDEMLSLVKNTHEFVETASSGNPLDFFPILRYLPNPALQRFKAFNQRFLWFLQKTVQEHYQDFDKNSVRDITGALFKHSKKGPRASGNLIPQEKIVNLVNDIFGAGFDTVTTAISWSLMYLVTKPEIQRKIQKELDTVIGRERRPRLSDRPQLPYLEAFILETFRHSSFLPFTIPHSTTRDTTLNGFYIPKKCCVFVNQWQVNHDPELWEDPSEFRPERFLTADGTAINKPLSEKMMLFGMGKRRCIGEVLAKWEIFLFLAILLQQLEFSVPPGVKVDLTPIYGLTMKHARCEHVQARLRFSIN

[9] = Apparent permeability of the compound across apical side to basolateral side in MDCK cells expressing MDR1 measured every 30 mins for 2 hrs; assay type: ADME, cell-based, Canis lupus familiaris; conditions: dog
[10] = Half life in rat at 1 mg/kg, iv; assay type: ADME, organism-based; conditions: in vivo
[11] = AUC in rat at 10 mg/kg, po; assay type: ADME, organism-based; conditions: in vivo
[12] = Cmax in rat at 10 mg/kg, po; assay type: ADME, organism-based; design: dose 10 mg/kg, route oral; conditions: in vivo
[13] = Tmax in rat at 10 mg/kg, po; assay type: ADME, organism-based; conditions: in vivo
[14] = Oral bioavailability in rat at 10 mg/kg; assay type: ADME, organism-based; conditions: in vivo
[15] = tested on: Mus musculus; assay: Anxiolytic-like activity in ip dosed Harlan CD-1 mouse marble burying model of OCD assessed as suppression of marble burying activity administered 15 mins prior to test measured over 30 mins; assay type: functional; conditions: Harlan CD-1, ip, read-out: MED
[16] = Volume of distribution at steady state in rat at 1 mg/kg, iv; assay type: ADME, organism-based; conditions: in vivo, read-out: Vdss
[17] = molecular target: T2, DAT (sodium-dependent dopamine transporter) (Homo sapiens, UniProt Q01959); assay: in vitro
[18] = Apparent permeability of the compound across basolateral side to apical side in MDCK cells expressing MDR1 measured every 30 mins for 2 hrs; assay type: ADME, cell-based, Canis lupus familiaris; conditions: dog
[19] = Ratio of unbound brain to plasma concentration in rat at 3 mg/kg, po; assay type: ADME, organism-based
[20] = Plasma clearance in rat at 1 mg/kg, iv; assay type: ADME, organism-based
[21] = Mean residence time in rat at 1 mg/kg, iv; assay type: ADME, organism-based; conditions: in vivo
[22] = tested on: Brain; assay: Fraction unbound in rat brain homogenates at 5 uM after 6 hrs by equilibrium dialysis method; assay type: ADME, tissue-based; conditions: brain homogenate
[23] = Brain to plasma partition coefficient, Kp of the compound in rat at 3 mg/kg, po; assay type: ADME, organism-based
[24] = molecular target: Sodium-dependent dopamine transporter (Homo sapiens, UniProt Q01959); assay type: ADME, cell-based
[25] = molecular target: Platelet-activating factor receptor (Homo sapiens) (UniProt P25105); assay: Displacement of [3H]PAF from human PAF at 10 uM after 3 hrs by scintillation counting method relative to control
[26] = tested on: Mus musculus; assay: Anxiolytic-like activity in Harlan CD-1 mouse marble burying model of OCD assessed as suppression of marble burying activity at 10 mg/kg, ip administered 15 mins prior to test measured over 30 mins; assay type: functional, organism-based
[27] = molecular target: T2, DAT (sodium-dependent dopamine transporter); assay: Inhibition of full-length recombinant human DAT expressed in CHOK1 cells assessed as reduction in [3H]dopamine uptake at 10 uM pretreated for 20 mins followed by [3H]dopamine addition measured after 10 mins by scintillation counting method relative to control; assay type: cell-based; conditions: CHO-K1 cells expressing full-length recombinant human DAT, probe [3H]dopamine
[28] = CHO-K1 cells expressing recombinant human DAT, probe [125I]RTI-55

Metabotropic glutamate receptor 5, sequence (P31424 whole entry): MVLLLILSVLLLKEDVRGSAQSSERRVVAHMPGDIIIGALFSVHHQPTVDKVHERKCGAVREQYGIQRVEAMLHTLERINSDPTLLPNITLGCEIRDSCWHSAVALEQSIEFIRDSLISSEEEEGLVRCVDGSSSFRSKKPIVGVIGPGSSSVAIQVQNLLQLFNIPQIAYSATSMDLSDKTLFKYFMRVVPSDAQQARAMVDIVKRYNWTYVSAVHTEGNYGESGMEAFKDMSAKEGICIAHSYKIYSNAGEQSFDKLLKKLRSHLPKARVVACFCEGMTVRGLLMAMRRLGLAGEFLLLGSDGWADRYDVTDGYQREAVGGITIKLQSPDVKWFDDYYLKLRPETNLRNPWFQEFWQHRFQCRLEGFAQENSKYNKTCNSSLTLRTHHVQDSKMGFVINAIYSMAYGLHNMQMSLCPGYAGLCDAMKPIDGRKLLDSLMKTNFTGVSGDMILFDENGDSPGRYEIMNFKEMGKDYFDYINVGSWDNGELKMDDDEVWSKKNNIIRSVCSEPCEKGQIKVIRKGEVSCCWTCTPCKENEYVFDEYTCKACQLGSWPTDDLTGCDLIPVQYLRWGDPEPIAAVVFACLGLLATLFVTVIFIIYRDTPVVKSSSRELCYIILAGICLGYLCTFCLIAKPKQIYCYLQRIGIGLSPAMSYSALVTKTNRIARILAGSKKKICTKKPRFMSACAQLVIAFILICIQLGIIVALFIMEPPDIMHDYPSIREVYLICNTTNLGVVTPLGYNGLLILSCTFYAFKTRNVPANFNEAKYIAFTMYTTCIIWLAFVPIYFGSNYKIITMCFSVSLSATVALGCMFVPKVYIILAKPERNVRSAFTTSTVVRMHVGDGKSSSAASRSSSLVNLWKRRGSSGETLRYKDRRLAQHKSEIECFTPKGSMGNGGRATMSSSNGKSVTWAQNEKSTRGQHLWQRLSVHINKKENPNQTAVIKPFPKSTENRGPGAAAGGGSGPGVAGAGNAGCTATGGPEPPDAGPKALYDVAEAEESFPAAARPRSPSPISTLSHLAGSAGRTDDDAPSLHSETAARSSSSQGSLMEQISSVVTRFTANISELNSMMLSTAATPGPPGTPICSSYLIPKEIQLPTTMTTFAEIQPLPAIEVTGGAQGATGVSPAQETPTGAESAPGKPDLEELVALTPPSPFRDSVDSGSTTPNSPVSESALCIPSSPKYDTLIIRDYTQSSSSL
Cytochrome P450 2C9, sequence (P11712 whole entry): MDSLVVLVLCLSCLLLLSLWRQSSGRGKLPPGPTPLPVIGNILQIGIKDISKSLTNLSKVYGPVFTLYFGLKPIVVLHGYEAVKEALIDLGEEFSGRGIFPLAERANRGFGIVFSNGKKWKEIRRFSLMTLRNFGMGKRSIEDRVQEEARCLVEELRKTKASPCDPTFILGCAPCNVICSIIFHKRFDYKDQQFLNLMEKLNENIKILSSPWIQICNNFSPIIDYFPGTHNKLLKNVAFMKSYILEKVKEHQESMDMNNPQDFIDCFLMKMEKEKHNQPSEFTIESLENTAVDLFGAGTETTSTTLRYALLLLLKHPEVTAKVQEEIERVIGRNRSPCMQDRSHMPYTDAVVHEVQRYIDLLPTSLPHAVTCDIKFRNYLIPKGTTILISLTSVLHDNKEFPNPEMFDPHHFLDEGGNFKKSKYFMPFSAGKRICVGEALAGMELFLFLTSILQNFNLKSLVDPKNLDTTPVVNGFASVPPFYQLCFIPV
Cytochrome P450 3A4, sequence (P08684 whole entry): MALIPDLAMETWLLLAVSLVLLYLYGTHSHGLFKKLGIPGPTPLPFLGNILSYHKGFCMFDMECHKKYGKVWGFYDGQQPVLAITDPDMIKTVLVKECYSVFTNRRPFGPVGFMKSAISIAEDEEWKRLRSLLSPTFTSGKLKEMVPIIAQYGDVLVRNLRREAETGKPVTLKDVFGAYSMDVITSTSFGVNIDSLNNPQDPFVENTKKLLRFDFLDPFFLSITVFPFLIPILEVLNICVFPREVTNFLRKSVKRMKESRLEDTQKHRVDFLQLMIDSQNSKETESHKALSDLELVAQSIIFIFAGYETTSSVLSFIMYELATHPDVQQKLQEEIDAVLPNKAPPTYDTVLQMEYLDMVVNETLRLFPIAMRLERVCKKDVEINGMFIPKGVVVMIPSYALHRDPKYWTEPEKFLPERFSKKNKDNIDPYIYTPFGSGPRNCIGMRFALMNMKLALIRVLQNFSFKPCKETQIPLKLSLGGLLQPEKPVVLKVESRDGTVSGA
Cytochrome P450 2D6, sequence (P10635 whole entry): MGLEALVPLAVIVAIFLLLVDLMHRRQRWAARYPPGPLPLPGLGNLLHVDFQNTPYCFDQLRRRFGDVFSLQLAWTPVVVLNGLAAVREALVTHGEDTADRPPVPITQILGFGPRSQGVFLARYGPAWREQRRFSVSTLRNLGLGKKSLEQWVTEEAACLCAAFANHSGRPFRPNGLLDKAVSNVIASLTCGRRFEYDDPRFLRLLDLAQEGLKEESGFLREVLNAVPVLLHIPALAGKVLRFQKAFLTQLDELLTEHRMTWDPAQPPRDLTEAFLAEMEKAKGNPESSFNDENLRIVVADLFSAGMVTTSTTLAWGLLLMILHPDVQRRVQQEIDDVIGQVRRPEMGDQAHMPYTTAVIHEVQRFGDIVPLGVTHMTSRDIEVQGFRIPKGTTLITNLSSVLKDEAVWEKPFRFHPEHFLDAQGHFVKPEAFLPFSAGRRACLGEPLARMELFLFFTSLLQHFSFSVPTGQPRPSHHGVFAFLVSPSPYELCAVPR
Metabotropic glutamate receptor 5 (Rattus norvegicus), sequence (P31424 21-1203 limits assumed): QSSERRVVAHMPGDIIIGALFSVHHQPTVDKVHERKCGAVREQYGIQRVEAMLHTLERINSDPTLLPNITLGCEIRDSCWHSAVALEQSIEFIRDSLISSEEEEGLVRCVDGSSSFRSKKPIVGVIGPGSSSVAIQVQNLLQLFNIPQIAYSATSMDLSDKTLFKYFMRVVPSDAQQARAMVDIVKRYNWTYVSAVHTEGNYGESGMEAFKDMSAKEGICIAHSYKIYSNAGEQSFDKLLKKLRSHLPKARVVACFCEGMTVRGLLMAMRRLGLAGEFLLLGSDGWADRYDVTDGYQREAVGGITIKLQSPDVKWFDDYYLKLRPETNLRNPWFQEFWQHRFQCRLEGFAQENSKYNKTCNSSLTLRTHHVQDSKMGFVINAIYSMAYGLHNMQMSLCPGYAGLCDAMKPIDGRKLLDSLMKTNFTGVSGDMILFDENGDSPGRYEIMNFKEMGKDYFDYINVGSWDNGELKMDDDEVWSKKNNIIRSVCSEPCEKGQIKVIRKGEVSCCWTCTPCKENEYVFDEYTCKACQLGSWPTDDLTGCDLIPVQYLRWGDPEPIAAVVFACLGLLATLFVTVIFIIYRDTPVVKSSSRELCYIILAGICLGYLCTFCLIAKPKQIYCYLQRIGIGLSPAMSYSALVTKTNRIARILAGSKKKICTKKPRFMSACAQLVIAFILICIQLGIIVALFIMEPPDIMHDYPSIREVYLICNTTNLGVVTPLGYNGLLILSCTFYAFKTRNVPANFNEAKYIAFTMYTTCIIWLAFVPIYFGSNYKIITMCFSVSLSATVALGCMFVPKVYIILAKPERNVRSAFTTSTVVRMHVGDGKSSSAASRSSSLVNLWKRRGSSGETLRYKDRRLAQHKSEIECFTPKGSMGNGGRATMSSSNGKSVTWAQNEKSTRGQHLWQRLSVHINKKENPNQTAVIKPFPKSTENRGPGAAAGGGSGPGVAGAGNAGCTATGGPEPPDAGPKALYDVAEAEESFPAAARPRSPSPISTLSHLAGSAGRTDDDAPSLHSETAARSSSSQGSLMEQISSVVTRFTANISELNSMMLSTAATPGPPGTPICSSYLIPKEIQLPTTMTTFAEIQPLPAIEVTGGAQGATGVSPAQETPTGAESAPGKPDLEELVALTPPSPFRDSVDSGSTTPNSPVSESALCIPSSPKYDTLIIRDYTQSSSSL
Sodium-dependent dopamine transporter, sequence (Q01959 whole entry): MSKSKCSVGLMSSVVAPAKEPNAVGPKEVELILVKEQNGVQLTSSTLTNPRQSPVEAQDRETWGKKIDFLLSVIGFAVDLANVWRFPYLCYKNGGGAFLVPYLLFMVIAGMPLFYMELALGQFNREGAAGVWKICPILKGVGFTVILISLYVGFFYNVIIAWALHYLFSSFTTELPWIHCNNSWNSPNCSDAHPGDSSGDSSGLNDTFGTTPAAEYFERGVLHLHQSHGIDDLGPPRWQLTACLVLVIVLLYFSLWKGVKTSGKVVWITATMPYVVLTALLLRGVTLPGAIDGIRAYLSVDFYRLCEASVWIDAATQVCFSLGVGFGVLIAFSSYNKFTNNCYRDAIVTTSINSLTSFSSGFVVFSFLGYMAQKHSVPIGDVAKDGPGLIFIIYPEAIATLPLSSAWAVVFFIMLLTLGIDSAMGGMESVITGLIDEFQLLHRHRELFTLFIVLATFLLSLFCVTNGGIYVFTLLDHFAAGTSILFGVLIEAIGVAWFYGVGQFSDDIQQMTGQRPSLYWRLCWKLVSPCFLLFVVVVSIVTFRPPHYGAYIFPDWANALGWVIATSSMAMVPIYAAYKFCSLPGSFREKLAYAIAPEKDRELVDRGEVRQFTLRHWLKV
T2 sequence (Q01959 whole entry): as above
Platelet-activating factor receptor (Homo sapiens), sequence (P25105 whole entry): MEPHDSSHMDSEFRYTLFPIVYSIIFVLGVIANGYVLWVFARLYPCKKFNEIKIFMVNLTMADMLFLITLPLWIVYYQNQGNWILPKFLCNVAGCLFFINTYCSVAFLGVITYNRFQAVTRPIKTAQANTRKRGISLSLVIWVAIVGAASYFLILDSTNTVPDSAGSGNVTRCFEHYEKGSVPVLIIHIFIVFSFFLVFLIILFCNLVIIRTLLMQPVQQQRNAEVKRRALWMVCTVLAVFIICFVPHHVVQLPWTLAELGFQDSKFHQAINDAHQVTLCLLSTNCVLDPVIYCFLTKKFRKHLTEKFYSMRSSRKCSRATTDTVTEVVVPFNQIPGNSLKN

SMILES	IC50 [1]	IC50 [2]	IC50 [3]	IC50 [4]	Fu [5]	Fu [6]	%max [7]	IC50 [8]	other results
Cc1ccc(NC(=O)c2cc(Oc3cncc(F)c3)cn3ccnc23)nc1	1900 nM	74 nM	> 30000 nM	6900 nM	0.016	0.005	1.4%	800 nM	–
O=C(Nc1ccc(F)cn1)c1cc(Oc2cncc(F)c2)cn2cnnc12	17800 nM	27 nM	> 30000 nM	> 30000 nM	0.1	0.051	2.3%	4300 nM	Papp [9]: 4.7 ×10⁻⁶ cm/s; half-life [10]: 1.32 h; AUC [11]: 5.67 µM·h; Cmax [12]: 573 nM; Tmax [13]: 3 h; bioavailability [14]: 17%; minimal effective dose [15]: 3 mg/kg; Vd [16]: 1.6 L/kg; inhibition at 3 h, 10 µM [17, 28]: 91%; Papp [18]: 11.1 ×10⁻⁶ cm/s; K(p,uu,brain) [19]: 2.1; clearance [20]: 14 mL/min/kg; MRT [21]: 1.97 h; Fu [22]: 0.065; Kp [23]: 1.7
O=C(Nc1ccc(F)cn1)c1cc(Oc2cc(F)cnc2F)cn2ncnc12	–	117 nM	–	–	–	–	2.2%	–	–
Cc1nc2c(C(=O)Nc3ccc(F)cn3)cc(Oc3cncc(F)c3)cn2n1	–	1410 nM	–	–	–	–	3.3%	–	–
O=C(Nc1ccc(F)cn1)c1cc(Oc2cncnc2)cn2cnnc12	–	324 nM	–	–	–	–	1.6%	–	–
O=C(Nc1ccc(F)cn1)c1cc(Oc2cncc(F)c2)cn2ncnc12	> 30000 nM	20 nM	> 30000 nM	> 30000 nM	0.071	0.066	1.5%	15100 nM	Papp [9]: 10 ×10⁻⁶ cm/s; half-life [10]: 1.35 h; AUC [11]: 8.3 µM·h; Cmax [12]: 673 nM; Tmax [13]: 3 h; bioavailability [14]: 20%; minimal effective dose [15]: 3 mg/kg; Vd [16]: 1.6 L/kg; IC50 [24]: 730 nM; inhibition at 3 h, 10 µM [17, 28]: 89%; Papp [18]: 13.1 ×10⁻⁶ cm/s; K(p,uu,brain) [19]: 0.6; clearance [20]: 11 mL/min/kg; inhibition [25]: 55%; MRT [21]: 2.38 h; Fu [22]: 0.028; Kp [23]: 1.4
O=C(Nc1ccc(F)cn1)c1cc(Oc2cnc(F)c(F)c2)cn2ncnc12	23000 nM	56 nM	> 30000 nM	> 30000 nM	0.031	0.023	1.6%	> 30000 nM	IC50 [24]: 2870 nM; inhibition at 3 h, 10 µM [17]: 67%
Cc1cc(Oc2cncnc2)cc(C(=O)Nc2ccc(F)cn2)n1	–	–	–	–	–	–	–	–	Activity [26]: Active
O=C(Nc1ccc(F)cn1)c1cc(Oc2cncnc2)cn2ncnc12	> 30000 nM	74 nM	> 30000 nM	> 30000 nM	0.313	0.168	1.5%	9900 nM	inhibition at 10 min, 10 µM [27]: 42%; IC50 [24]: > 10000 nM; inhibition at 3 h, 10 µM [17, 28]: 60%
Cc1nnc2c(C(=O)Nc3ccc(F)cn3)cc(Oc3cncc(F)c3)cn12	–	372 nM	–	–	–	–	2.7%	–	–
O=C(Nc1ccc(F)cn1)c1cc(Oc2cncc(F)c2)cn2ccnc12	3900 nM	20 nM	> 30000 nM	5700 nM	0.02	0.028	1.6%	800 nM	–
O=C(Nc1ccc(F)cn1)c1cc(Oc2cncc(Cl)c2)cn2ncnc12	–	89 nM	–	–	–	–	1.1%	–	–
O=C(Nc1cccc(F)n1)c1cc(Oc2cncc(F)c2)cn2ccnc12	2300 nM	38 nM	24800 nM	1600 nM	0.026	0.023	1.5%	600 nM	–
O=C(Nc1ccc(F)cn1)c1cc(Oc2cncc(OC(F)F)c2)cn2ncnc12	–	129 nM	–	–	–	–	1.7%	–	–
O=C(Nc1ccc(F)cn1)c1cc(Oc2cncc(F)c2F)cn2ncnc12	> 30000 nM	41 nM	> 30000 nM	> 30000 nM	0.067	0.066	2%	4100 nM	inhibition at 3 h, 10 µM [17, 28]: 87%
COc1ccc(NC(=O)c2cc(Oc3cncc(F)c3)cn3ccnc23)nc1	2000 nM	55 nM	> 30000 nM	5700 nM	0.028	0.014	1.6%	1100 nM	–
